Reference: publication PMC11808539 (Bioorganic & medicinal chemistry letters, 2024)

Key:
GSK-3 = GSK-3 inhibition, isoform not stated; type: biochemical; conditions: no activity defined as an IC50 >10μM
MAPK5/PRAK = conditions: at 2μM; cited from earlier work
[1] = test system: other kinases tested having a lysine at a position comparable to Arg141 in GSK-3β; conditions: kinases with lysine at position comparable to Arg141; at 2 μM; cited from earlier work
broad kinase screen = conditions: cited from earlier work

Structure (SMILES)	activity (GSK-3 inhibition, in words) (GSK-3)	% inhibition (MAPK5/PRAK)	% inhibition [1]	kinase selectivity (in words) (broad kinase screen)
OC1(c2ccccc2)CSC(=S)N1Cc1ccccc1 (stereo not drawn) [Compound 3a]	no activity			
OC1(c2ccccc2)CSC(=S)N1Cc1ccncc1 (stereo not drawn) [Compound 3c]	excellent activity	60%	< 30%	the only kinases significantly inhibited by 3c were GSK-3β and GSK-3α
OC1(c2ccccc2)CSC(=S)N1Cc1ccccn1 (stereo not drawn) [Compound 3d]	no activity			
